Article PMC9115314 (Biochemistry and Biophysics Reports, 2022)

These molecules were tested against h2E2 humanized anti-cocaine mAb (assay: differential scanning fluorimetry). Settings: read-out: Avg Kd (nM) ± Std. Dev. (fold increase vs unmodified h2E2 mAb).
Format: binding, Homo sapiens
`CN1[C@H]2CC[C@@H]1[C@@H](C(=O)O)[C@@H](OC(=O)c1ccccc1)C2` [BE, benzoylecgonine] was tested, and the Kd was 177 ± 14 nM.
`COC(=O)[C@H]1[C@@H](OC(=O)c2ccccc2)C[C@@H]2CC[C@H]1N2C` [Coc, cocaine] gave a Kd of 53 ± 6.8 nM.
`CCOC(=O)[C@H]1[C@@H](OC(=O)c2ccccc2)C[C@@H]2CC[C@H]1N2C` [CE, cocaethylene] gave a Kd of 20.7 ± 4.1 nM.
